# Test results: ChEMBL document CHEMBL5291721, “A preclinical secondary pharmacology resource illuminates target-adverse drug reaction associations of marketed drugs” (Nat Commun, 2023)
# Legend:
# [1] = biological target: T1, Androgen receptor (Rattus norvegicus, UniProt P15207)
# T1 sequence (P15207 whole entry): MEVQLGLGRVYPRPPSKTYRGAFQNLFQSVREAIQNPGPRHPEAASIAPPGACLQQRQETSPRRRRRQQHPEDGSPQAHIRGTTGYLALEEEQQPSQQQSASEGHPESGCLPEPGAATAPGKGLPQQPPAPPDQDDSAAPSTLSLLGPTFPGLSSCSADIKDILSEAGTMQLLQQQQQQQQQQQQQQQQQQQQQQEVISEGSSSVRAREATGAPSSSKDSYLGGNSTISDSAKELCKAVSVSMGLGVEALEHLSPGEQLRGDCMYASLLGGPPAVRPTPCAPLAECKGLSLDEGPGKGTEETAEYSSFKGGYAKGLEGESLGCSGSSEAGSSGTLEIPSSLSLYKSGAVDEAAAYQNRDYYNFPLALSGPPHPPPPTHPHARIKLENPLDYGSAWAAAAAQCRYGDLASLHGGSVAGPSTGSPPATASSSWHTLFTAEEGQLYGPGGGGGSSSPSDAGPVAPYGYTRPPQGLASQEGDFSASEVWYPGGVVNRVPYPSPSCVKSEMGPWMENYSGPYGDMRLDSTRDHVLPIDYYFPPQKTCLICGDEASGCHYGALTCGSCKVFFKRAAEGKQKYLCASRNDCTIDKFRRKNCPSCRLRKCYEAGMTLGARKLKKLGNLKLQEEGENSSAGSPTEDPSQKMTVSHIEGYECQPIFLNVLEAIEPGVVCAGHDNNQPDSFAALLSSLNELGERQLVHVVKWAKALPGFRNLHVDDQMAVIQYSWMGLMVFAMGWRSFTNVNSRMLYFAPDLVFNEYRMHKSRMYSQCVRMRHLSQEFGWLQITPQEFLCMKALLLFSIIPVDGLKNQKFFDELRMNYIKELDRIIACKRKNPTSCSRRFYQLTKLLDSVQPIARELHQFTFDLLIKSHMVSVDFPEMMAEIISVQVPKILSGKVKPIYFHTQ
# [2] = biological target: D(1A) dopamine receptor (Homo sapiens, UniProt P21728)
# Chain of D(1A) dopamine receptor (P21728 whole entry): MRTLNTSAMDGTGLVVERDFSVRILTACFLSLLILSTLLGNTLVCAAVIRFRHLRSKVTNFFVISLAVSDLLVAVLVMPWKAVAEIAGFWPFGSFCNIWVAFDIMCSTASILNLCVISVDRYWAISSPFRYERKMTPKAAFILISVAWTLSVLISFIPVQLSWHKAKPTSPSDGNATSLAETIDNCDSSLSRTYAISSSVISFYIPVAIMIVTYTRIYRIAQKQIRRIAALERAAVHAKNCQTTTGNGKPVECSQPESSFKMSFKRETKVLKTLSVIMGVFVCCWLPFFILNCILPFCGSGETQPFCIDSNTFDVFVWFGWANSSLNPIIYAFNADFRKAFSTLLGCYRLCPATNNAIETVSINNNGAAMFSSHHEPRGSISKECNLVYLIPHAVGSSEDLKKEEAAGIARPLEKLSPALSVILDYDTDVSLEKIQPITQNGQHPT
# [3] = biological target: Neurotensin receptor type 1 (Homo sapiens, UniProt P30989)
# [4] = biological target: Voltage-dependent N-type calcium channel subunit alpha-1B (Rattus norvegicus, UniProt Q02294); format: functional
# Chain of Voltage-dependent N-type calcium channel subunit alpha-1B (Q02294 whole entry): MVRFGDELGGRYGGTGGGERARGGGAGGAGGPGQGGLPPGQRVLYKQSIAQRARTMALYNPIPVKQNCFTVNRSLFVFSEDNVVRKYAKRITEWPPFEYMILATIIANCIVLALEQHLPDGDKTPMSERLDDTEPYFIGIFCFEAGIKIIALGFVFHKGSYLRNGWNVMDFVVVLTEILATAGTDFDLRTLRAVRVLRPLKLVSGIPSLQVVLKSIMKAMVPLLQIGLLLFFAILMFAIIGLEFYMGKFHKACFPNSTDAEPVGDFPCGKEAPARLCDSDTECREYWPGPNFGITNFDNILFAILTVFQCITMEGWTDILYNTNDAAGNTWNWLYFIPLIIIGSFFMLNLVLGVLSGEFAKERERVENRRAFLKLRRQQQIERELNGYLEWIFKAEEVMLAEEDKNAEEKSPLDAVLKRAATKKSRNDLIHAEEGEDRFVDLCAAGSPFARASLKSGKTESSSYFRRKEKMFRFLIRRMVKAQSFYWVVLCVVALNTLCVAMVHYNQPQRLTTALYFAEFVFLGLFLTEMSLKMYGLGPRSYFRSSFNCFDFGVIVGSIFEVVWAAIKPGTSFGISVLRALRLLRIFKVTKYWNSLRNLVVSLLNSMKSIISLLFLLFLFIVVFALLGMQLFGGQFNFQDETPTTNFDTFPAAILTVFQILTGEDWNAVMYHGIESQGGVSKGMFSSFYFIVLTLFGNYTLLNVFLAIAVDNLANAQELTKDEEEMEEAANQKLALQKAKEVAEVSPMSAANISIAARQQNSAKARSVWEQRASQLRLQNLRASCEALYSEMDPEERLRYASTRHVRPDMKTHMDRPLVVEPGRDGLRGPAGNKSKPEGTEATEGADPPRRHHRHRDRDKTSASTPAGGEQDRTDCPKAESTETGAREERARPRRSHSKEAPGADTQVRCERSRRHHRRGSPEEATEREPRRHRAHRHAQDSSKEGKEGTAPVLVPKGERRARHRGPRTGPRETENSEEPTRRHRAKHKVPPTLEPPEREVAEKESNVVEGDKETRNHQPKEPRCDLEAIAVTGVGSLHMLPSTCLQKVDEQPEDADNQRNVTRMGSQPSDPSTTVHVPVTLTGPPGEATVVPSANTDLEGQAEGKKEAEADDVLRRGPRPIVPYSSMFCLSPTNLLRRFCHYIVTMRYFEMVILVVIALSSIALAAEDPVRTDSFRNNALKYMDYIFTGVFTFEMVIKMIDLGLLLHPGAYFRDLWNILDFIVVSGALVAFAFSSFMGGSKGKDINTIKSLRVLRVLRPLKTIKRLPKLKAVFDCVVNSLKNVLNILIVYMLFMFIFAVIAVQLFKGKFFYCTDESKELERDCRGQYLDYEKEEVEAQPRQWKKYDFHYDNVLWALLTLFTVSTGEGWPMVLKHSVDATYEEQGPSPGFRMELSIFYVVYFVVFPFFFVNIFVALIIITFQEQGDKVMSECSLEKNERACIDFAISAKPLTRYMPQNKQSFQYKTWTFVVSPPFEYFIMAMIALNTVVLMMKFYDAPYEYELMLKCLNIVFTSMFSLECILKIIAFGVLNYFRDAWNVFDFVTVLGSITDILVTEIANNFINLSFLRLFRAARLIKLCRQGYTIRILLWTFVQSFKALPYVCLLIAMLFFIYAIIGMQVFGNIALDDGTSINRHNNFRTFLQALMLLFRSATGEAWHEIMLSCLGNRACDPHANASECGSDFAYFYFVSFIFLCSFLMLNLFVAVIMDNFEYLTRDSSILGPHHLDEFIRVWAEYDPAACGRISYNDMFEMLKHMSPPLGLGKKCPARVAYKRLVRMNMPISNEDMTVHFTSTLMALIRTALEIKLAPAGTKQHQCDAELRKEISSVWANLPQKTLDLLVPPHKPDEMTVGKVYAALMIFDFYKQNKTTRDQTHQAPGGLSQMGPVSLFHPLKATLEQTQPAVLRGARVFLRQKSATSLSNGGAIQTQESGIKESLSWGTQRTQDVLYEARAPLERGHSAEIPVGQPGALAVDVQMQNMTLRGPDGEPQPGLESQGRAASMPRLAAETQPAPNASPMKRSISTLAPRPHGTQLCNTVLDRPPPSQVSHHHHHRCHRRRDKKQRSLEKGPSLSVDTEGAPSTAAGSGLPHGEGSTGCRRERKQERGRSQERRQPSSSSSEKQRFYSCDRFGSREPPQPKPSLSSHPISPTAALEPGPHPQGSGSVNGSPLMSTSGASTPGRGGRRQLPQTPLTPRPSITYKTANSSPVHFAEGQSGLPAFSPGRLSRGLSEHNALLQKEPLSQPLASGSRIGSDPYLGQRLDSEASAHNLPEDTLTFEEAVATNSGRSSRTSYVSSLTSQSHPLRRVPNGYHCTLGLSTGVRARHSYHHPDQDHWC
# [5] = biological target: T2, Endothelin receptor type B (Homo sapiens, UniProt P24530)
# T2 sequence (P24530 whole entry): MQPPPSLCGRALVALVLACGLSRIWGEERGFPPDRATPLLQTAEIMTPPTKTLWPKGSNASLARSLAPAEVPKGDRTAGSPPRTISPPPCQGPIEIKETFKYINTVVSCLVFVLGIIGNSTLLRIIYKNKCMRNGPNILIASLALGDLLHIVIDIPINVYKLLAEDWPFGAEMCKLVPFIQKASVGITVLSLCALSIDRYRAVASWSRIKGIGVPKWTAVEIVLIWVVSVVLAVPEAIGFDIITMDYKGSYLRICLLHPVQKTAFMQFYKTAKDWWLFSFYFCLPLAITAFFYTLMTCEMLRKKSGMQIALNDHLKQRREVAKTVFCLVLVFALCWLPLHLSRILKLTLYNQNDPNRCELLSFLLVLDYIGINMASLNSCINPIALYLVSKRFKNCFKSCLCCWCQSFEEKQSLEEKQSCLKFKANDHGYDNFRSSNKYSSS
# [6] = biological target: T3, Progesterone receptor (Homo sapiens, UniProt P06401)
# T3 sequence (P06401 whole entry): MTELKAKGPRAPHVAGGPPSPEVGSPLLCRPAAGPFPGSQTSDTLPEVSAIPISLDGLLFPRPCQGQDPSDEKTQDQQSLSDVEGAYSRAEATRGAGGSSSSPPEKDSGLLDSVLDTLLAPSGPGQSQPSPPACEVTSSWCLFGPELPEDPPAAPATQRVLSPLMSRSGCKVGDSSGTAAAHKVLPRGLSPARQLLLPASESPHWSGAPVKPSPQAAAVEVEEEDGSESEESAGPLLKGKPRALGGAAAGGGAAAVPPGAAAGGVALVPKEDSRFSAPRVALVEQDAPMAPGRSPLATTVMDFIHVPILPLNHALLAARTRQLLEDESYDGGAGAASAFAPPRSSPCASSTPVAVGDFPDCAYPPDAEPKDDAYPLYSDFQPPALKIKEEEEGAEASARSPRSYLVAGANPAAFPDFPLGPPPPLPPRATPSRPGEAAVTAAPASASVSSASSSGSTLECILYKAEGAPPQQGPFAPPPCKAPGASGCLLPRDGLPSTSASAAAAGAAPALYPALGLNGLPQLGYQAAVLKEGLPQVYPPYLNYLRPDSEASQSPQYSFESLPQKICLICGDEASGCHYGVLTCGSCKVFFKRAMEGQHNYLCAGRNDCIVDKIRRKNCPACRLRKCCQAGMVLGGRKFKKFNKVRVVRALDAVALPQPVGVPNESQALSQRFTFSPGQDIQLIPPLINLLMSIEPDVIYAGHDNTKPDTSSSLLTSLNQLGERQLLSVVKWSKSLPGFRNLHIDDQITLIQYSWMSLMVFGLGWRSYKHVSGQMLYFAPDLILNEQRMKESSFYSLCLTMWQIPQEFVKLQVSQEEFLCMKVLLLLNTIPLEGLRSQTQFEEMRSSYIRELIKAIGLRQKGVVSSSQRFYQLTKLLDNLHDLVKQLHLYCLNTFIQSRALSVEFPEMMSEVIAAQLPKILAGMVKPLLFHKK
# [7] = biological target: 5-hydroxytryptamine receptor 2B (Homo sapiens, UniProt P41595)
# [8] = biological target: T4, Corticotropin-releasing factor receptor 1 (Homo sapiens, UniProt P34998)
# T4 sequence (P34998 whole entry): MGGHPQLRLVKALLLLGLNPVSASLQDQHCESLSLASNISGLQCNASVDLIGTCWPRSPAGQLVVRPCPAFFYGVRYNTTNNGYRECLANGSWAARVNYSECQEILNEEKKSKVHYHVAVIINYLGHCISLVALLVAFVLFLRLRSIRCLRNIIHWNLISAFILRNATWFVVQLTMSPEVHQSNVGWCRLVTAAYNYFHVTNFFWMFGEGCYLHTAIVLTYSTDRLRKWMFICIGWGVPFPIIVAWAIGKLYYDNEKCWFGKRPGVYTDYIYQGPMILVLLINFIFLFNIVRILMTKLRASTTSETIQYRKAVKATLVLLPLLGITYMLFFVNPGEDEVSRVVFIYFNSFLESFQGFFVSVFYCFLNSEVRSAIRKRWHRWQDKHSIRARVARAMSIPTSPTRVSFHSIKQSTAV
# [9] = biological target: Gamma-aminobutyric acid receptor subunit alpha-1/alpha-2/beta-2/gamma-2 (Homo sapiens, UniProt P14867+P18507+P47869+P47870); format: functional, cell-based
# Chain of Gamma-aminobutyric acid receptor subunit alpha-1/alpha-2/beta-2/gamma-2 (P14867 whole entry): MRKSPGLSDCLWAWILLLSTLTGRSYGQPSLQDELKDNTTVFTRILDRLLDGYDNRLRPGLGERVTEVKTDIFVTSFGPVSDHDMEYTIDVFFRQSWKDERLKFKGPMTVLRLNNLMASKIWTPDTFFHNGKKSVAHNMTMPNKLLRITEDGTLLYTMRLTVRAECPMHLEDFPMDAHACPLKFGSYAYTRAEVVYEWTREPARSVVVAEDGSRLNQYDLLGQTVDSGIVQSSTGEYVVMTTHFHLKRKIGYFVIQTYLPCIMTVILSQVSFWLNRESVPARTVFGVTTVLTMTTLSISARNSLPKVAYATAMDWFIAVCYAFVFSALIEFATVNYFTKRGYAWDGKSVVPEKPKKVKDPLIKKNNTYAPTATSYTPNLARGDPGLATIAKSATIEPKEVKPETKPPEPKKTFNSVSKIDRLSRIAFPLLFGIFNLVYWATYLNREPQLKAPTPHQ
# Chain of Gamma-aminobutyric acid receptor subunit alpha-1/alpha-2/beta-2/gamma-2 (P47870 whole entry): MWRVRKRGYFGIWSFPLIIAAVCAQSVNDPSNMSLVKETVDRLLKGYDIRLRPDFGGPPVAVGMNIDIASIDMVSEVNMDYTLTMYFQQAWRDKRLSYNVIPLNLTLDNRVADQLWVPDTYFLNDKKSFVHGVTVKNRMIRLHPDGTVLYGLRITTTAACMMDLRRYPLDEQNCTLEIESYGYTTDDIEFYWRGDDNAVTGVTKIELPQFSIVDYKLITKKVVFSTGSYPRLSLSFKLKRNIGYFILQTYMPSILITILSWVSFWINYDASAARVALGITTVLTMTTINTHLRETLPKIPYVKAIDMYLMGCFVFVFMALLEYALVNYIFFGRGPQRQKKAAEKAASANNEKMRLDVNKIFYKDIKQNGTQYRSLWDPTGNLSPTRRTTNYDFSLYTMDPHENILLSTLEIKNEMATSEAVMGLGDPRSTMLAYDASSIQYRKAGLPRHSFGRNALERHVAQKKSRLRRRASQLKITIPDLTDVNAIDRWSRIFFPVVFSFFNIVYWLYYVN
# Chain of Gamma-aminobutyric acid receptor subunit alpha-1/alpha-2/beta-2/gamma-2 (P18507 whole entry): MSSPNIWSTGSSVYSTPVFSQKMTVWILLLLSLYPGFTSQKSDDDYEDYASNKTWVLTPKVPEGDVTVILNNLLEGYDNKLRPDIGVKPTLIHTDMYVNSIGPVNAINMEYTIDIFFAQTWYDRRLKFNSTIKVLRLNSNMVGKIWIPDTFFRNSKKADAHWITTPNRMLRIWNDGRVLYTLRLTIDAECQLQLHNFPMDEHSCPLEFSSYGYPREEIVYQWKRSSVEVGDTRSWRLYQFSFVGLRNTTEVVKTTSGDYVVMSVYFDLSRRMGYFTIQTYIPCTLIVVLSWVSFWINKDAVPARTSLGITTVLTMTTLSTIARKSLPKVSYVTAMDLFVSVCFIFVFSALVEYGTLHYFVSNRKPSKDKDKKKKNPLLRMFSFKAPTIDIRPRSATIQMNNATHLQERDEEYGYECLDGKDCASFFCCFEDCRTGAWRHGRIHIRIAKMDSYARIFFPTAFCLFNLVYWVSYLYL
# Chain of Gamma-aminobutyric acid receptor subunit alpha-1/alpha-2/beta-2/gamma-2 (P47869 whole entry): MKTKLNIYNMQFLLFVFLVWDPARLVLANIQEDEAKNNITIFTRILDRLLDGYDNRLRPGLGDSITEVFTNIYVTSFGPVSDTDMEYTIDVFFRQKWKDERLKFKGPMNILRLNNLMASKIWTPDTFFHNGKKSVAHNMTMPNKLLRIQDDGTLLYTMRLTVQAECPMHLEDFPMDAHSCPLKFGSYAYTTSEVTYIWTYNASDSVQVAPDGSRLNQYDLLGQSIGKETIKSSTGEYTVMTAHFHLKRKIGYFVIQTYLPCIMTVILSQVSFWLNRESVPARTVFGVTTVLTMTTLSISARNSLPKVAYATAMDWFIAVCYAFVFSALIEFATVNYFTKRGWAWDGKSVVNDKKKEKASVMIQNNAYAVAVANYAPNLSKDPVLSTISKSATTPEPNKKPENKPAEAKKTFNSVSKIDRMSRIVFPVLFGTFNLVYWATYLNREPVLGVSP
# Note: assay procedure not described here.
compound,measurement,setting,value
CC(C)CN(C[C@@H](O)[C@H](Cc1ccccc1)NC(=O)O[C@H]1CCOC1)S(=O)(=O)c1ccc(N)cc1,AC50,[1],> 10 µM
CC1=C(CC(=O)O)c2cc(F)ccc2/C1=C\c1ccc([S+](C)[O-])cc1 (configuration not stated),AC50,[2],> 10 µM
same,AC50,[3],> 30 µM
same,AC50,[4],> 10 µM
same,AC50,[5],> 30 µM
same,AC50,[6],> 30 µM
same,AC50,[7],> 10 µM
same,AC50,[8],> 30 µM
NS(=O)(=O)c1ccc(N2CCCCS2(=O)=O)cc1,AC50,[9],> 30 µM
OCC(O)COc1ccc(Cl)cc1 (configuration not stated),AC50,[1],> 10 µM
O=C(O[C@H]1C[N+]2(CCCOc3ccccc3)CCC1CC2)C(O)(c1cccs1)c1cccs1 [ACLIDINIUM BROMIDE],AC50,[2],> 10 µM
same,AC50,[3],> 30 µM
same,AC50,[4],> 10 µM
same,AC50,[5],> 30 µM
same,AC50,[6],> 30 µM
same,AC50,[7],> 10 µM
same,AC50,[8],> 30 µM
Cc1nnc2n1-c1ccc(Cl)cc1C(c1ccccc1)=NC2 [ALPRAZOLAM],AC50,[2],> 10 µM
same,AC50,[3],> 30 µM
same,AC50,[4],> 10 µM
same,AC50,[5],> 30 µM
same,AC50,[6],> 30 µM
same,AC50,[7],> 10 µM
same,AC50,[8],> 30 µM
COc1ccc(-n2nc(C(N)=O)c3c2C(=O)N(c2ccc(N4CCCCC4=O)cc2)CC3)cc1 [APIXABAN],AC50,[9],> 30 µM
CCN(CC)CCCN(c1ccccc1)C1Cc2ccccc2C1 [APRINDINE],AC50,[9],> 30 µM
C[C@@H](Cc1ccccc1)N(C)Cc1ccccc1 [BENZPHETAMINE],AC50,[1],> 10 µM
CC(NC(C)(C)C)C(=O)c1cccc(Cl)c1 (configuration not stated) [BUPROPION],AC50,[2],> 10 µM
same,AC50,[3],> 30 µM
same,AC50,[4],> 10 µM
same,AC50,[5],> 30 µM
same,AC50,[6],> 30 µM
same,AC50,[7],> 10 µM
same,AC50,[8],> 30 µM
CC(=O)OCC1=C(C(=O)O)N2C(=O)[C@@H](NC(=O)Cc3cccs3)[C@H]2SC1 [CEPHALOTHIN],AC50,[9],> 30 µM
CC1=C(C(=O)O)N2C(=O)[C@@H](NC(=O)[C@H](N)C3=CCC=CC3)[C@H]2SC1 [CEPHRADINE],AC50,[9],> 30 µM
COc1ccc(C(Cl)=C(c2ccc(OC)cc2)c2ccc(OC)cc2)cc1 [CHLOROTRIANISENE],AC50,[9],> 30 µM
Oc1cc(O)c2c(c1)O[C@H](c1ccc(O)c(O)c1)[C@@H](O)C2 [CIANIDANOL],AC50,[2],> 10 µM
same,AC50,[3],> 30 µM
same,AC50,[4],> 10 µM
same,AC50,[5],> 30 µM
same,AC50,[6],> 30 µM
same,AC50,[7],> 10 µM
same,AC50,[8],> 30 µM
C=C(c1ccccc1OCc1cccc(Cl)c1)n1ccnc1 [CROCONAZOLE],AC50,[1],> 30 µM
CCCCCCOC(=O)NC(=N)c1ccc(NCc2nc3cc(C(=O)N(CCC(=O)OCC)c4ccccn4)ccc3n2C)cc1 [DABIGATRAN ETEXILATE],AC50,[9],> 30 µM
CC(=O)Oc1cccc2c1C(=O)c1c(OC(C)=O)cc(C(=O)O)cc1C2=O [DIACEREIN],AC50,[7],> 30 µM
OCCN(CCO)c1nc(N2CCCCC2)c2nc(N(CCO)CCO)nc(N3CCCCC3)c2n1 [DIPYRIDAMOLE],AC50,[3],> 30 µM
same,AC50,[1],> 30 µM
same,AC50,[6],> 30 µM
same,AC50,[7],> 30 µM
CCN1C(=O)NC(c2ccccc2)C1=O (configuration not stated) [ETHOTOIN],AC50,[9],> 30 µM
Cc1cnc(Nc2ccc(OCCN3CCCC3)cc2)nc1Nc1cccc(S(=O)(=O)NC(C)(C)C)c1 [FEDRATINIB],AC50,[1],> 30 µM
same,AC50,[6],> 30 µM
CN1C2CCCC1CC(NC(=O)c1nn(C)c3ccccc13)C2 (configuration not stated) [GRANISETRON],AC50,[2],> 10 µM
same,AC50,[3],> 30 µM
same,AC50,[4],> 10 µM
same,AC50,[5],> 30 µM
same,AC50,[6],> 30 µM
same,AC50,[8],> 30 µM
N=C(N)NC(=O)Cc1c(Cl)cccc1Cl [GUANFACINE],AC50,[6],> 30 µM
same,AC50,[7],1.34 µM
CC1Cc2ccccc2N1NC(=O)c1ccc(Cl)c(S(N)(=O)=O)c1 (configuration not stated) [INDAPAMIDE],AC50,[4],> 10 µM
CN1CCC(=C2c3ccccc3CC(=O)c3sccc32)CC1 [KETOTIFEN],AC50,[7],0.0328 µM
CCC(=O)O[C@H](CC(=O)O)C[N+](C)(C)C [LEVOCARNITINE PROPIONATE],AC50,[9],> 30 µM
CCN(CC)CC(=O)Nc1c(C)cccc1C [LIDOCAINE],AC50,[3],> 30 µM
same,AC50,[5],> 30 µM
same,AC50,[6],> 30 µM
same,AC50,[8],> 30 µM
O=C(O)c1nn(Cc2ccc(Cl)cc2Cl)c2ccccc12 [LONIDAMINE],AC50,[9],> 30 µM
Nc1cc(N2CCCCC2)nc(N)[n+]1[O-] [MINOXIDIL],AC50,[1],> 30 µM
same,AC50,[6],> 30 µM
COC(=O)c1ccc2c(c1)NC(=O)/C2=C(\Nc1ccc(N(C)C(=O)CN2CCN(C)CC2)cc1)c1ccccc1 [NINTEDANIB],AC50,[9],> 30 µM
CC1NCCOC1c1ccccc1 (configuration not stated) [PHENMETRAZINE],AC50,[2],> 10 µM
same,AC50,[3],> 30 µM
same,AC50,[4],> 10 µM
same,AC50,[5],> 30 µM
same,AC50,[6],> 30 µM
same,AC50,[8],> 30 µM
CCOC(=O)O[C@]1(C(=O)COC(=O)CC)CC[C@H]2[C@@H]3CCC4=CC(=O)C=C[C@]4(C)[C@H]3[C@@H](O)C[C@@]21C [PREDNICARBATE],AC50,[1],0.71 µM
CCC(=O)[C@@]1(C)[C@H](C)C[C@H]2[C@@H]3CCC4=CC(=O)C=C[C@]4(C)[C@H]3[C@@H](O)C[C@@]21C [RIMEXOLONE],AC50,[1],> 30 µM
CS(=O)(=O)NC(=O)CCC/C=C\C[C@H]1C(=O)C[C@@H](O)[C@@H]1/C=C/[C@@H](O)COc1ccccc1 [SULPROSTONE],AC50,[9],> 30 µM
CC(C(=O)O)c1ccc(C(=O)c2ccccc2)s1 (configuration not stated) [TIAPROFENIC ACID],AC50,[1],> 10 µM
CCCCCCCC(=O)CC[C@@H]1[C@@H](C/C=C\CCCC(=O)O)[C@@H](O)C[C@H]1O [UNOPROSTONE],AC50,[9],> 30 µM
OCC(CO)N[C@H]1C[C@](O)(CO)[C@@H](O)[C@H](O)[C@H]1O [VOGLIBOSE],AC50,[1],> 30 µM
TEPRENONE,AC50,[1],> 30 µM
same,AC50,[6],> 30 µM
